These are literature values, as cited in patent US20240100001A1, “DENATONIUM SALT FOR USE IN PREVENTING, PREVENTING PROGRESSION AND TREATING FATTY LIVER DISEASES” (AARDVARK THERAPEUTICS INC., priority 2021, published 2024).

The subject of series [1] is Male C57BL/6N mice fed choline-deficient, L-amino acid-defined, high-fat diet (CDAHFD). The note with it: cited from earlier work.
The subject of series [2] is Male C57BL/6 mice fed a CDAHFD diet for 12 weeks. As to conditions: cited from earlier work.
The test system of series [3] is Male C57BL/6J mice fed with the AMLN diet for 50 weeks. The note with it: 30 mg/kg, PO, QD for 8 weeks; cited from earlier work.
Series [4] concerns patients with NASH and IGT or T2DM. As to conditions: women and men; cited from earlier work.

For the compound `CCCCOCCOc1ccc(-c2ccc3c(c2)/C=C(/C(=O)Nc2ccc([S@@+]([O-])Cc4cncn4CCC)cc2)CCCN3CC(C)C)cc1` [Cenicriviroc], in series [1] (30 mg/kg/day for 4 or 14 weeks), the “intrahepatic accumulation of inflammatory macrophages” value is “Inhibited”. Moreover, the fibrosis on histopathology entry in series [1] (only with 30 mg/kg/day for 14 weeks, IP) is listed as “improved”.
Consider `CC[C@H]1[C@@H](O)[C@@H]2[C@H](CC[C@]3(C)[C@@H]([C@H](C)CCNC(=O)NS(=O)(=O)c4ccc(C(C)(C)C)cc4)CC[C@@H]23)[C@@]2(C)CC[C@@H](O)C[C@@H]12` [EDP-305], for which the fibrogenic gene expression entry in series [2] (High dose (30 mg/kg)) is reported as “decreased”. Further, in series [2] (High-dose (30 mg/kg) daily PO from the beginning of week 6), the “fibrosis progression on histopathology” value is “mg/kg) halted”.
As for `CSc1ccc(C(=O)/C=C/c2cc(C)c(OC(C)(C)C(=O)O)c(C)c2)cc1` [Elafibranor], in series [3], the fibrosis severity result was “reduced”, the “histopathological score of hepatic steatosis” value is “reduced” and the “histopathological score of inflammation” value is on record as “reduced”.
In the case of `CCc1ccc(CCOc2ccc(CC3SC(=O)NC3=O)cc2)nc1` (centres unmarked) [pioglitazone], the “risk of weight gain, edema, congestive heart failure, and osteoporotic fractures” value in series [4] is reported as “significantly increased risk”.
